Each structure is given as a SMILES string.

Assay [1] can be described thus: Binding affinity to chymotrypsin (unknown origin). The settings on record: Homo sapiens.
A short description of assay [2]: Binding affinity to chymotrypsin (unknown origin) assessed as deacetylation. Particulars: Homo sapiens.

The compound `CC(C)C[C@H](NC(=O)OCc1ccccc1)C(=O)Oc1ccc([N+](=O)[O-])cc1` showed a log(1/Km) in assay [1] of 5.32. Moreover, in assay [2], the log K was 0.92.

Regarding `CCCC(=O)Oc1ccc([N+](=O)[O-])cc1`, the log K in assay [2] is -2.22.

With `CCC[C@H](NC(=O)CCl)C(=O)OC`, in assay [1], the log(1/Km) came out at 2.3.

Regarding `NC(=O)C[C@@H](NC(=O)OCc1ccccc1)C(=O)Oc1ccc([N+](=O)[O-])cc1`, in assay [1], the log(1/Km) was determined as 5.84. Further, in assay [2], the log K is -1.65.

As for `CCCCCC(=O)Oc1ccc([N+](=O)[O-])cc1`, the log K in assay [2] was -1.44.

As to `O=C(CCCl)Oc1ccc([N+](=O)[O-])cc1`, the log K in assay [2] was -1.67.

The compound `O=CNCC(=O)Oc1ccc([N+](=O)[O-])cc1` registered a log(1/Km) in assay [1] of 4.8. Moreover, the log K in assay [2] was -0.61.

For the compound `O=C(CCCCCl)Oc1ccc([N+](=O)[O-])cc1`, in assay [2], the log K is -1.37.

`COC(=O)[C@@H](C)NC(=O)c1ccccc1N` had a log(1/Km) in assay [1] of 2.8.

Compound `CC[C@@H](NC(=O)OCc1ccccc1)C(=O)Oc1ccc([N+](=O)[O-])cc1` had a log(1/Km) in assay [1] of 5.71. Also, the log K in assay [2] is -1.45.

As to `CCCCCCCC(=O)Oc1ccc([N+](=O)[O-])cc1`, the log K in assay [2] was -1.47.

Consider `O=C(CCc1c[nH]c2ccccc12)Oc1ccc([N+](=O)[O-])cc1`, for which the log K in assay [2] is -0.47.

As to `COC(=O)[C@H](NC(=O)CCl)C(C)C`, the log1/Ki in assay [1] stood at 0.77.

In assay [1], `CC[C@@H](C)OC(=O)CNC(=O)c1ccccc1` registered a log(1/Km) of 2.7.

As for `CCOC(=O)C[C@H](NC(C)=O)C(=O)OCC`, the log(1/Km) in assay [1] was 1.64.

Regarding `O=C(Oc1ccc([N+](=O)[O-])cc1)c1cccc([N+](=O)[O-])c1`, the log K in assay [2] was -2.85.

For the compound `C[C@H](NC=O)C(=O)Oc1ccc([N+](=O)[O-])cc1`, the log(1/Km) in assay [1] stood at 4.88. The log K in assay [2] was -0.61.

In assay [1], `COC(=O)[C@@H](C)NC(=O)c1ccccc1` yielded a log(1/Km) of 2.48.

As for `O=C(N[C@H](Cc1ccccc1)C(=O)Oc1ccc([N+](=O)[O-])cc1)OCc1ccccc1`, the log(1/Km) in assay [1] is 6.42. The log K in assay [2] was -0.74.

In the case of `O=C(CCCc1ccccc1)Oc1ccc([N+](=O)[O-])cc1`, the log K in assay [2] is -0.87.

In assay [1], `COC(=O)[C@@H](C)NC(=O)c1cccnc1` yielded a log(1/Km) of 2.22.

For `O=C(CCc1ccccc1)Oc1ccc([N+](=O)[O-])cc1`, the log K in assay [2] was -0.73.

`COC(=O)[C@@H](Cc1ccccc1)NC(C)=O` had a log1/Ki in assay [1] of 2.64.

For `CC[C@H](NC(=O)OCc1ccccc1)C(=O)Oc1ccc([N+](=O)[O-])cc1`, the log(1/Km) in assay [1] is 5.74. For the same compound, the log K in assay [2] stood at 0.43.

`O=C(CI)Oc1ccc([N+](=O)[O-])cc1`: in assay [2], the log K is -0.1.

For `CCOC(=O)[C@@H](Cc1ccc(O)cc1)NC(C)=O`, the log1/Ki in assay [1] was 2.4.

With `NC(=O)C[C@H](NC(=O)OCc1ccccc1)C(=O)Oc1ccc([N+](=O)[O-])cc1`, the log(1/Km) in assay [1] was determined as 4.87. Also, the log K in assay [2] came to 1.53.

Regarding `O=C(Cc1c[nH]c2ccccc12)Oc1ccc([N+](=O)[O-])cc1`, the log K in assay [2] is -2.52.

Compound `COC(=O)[C@@H](Cc1ccccc1)NC=O` yielded a log(1/Km) in assay [1] of 3.6.

For `CCC[C@@H](NC(=O)OCc1ccccc1)C(=O)Oc1ccc([N+](=O)[O-])cc1`, the log(1/Km) in assay [1] came to 5.5. Further, the log K in assay [2] is -0.82.

As for `CC(C)[C@H](NC(=O)OCc1ccccc1)C(=O)Oc1ccc([N+](=O)[O-])cc1`, the log(1/Km) in assay [1] was found to be 4.75. Also, the log K in assay [2] is -0.93.

In assay [1], `COC(=O)[C@H](NC(=O)c1ccccc1)C(C)C` had a log1/Ki of 2.28.

With `O=C(CCCc1c[nH]c2ccccc12)Oc1ccc([N+](=O)[O-])cc1`, the log K in assay [2] is -0.83.

Consider `O=C(Cc1ccccc1)Oc1ccc([N+](=O)[O-])cc1`, for which, in assay [2], the log K was -1.65.

Take `COCC(=O)Oc1ccc([N+](=O)[O-])cc1`: the log K in assay [2] was -0.46.

For the compound `O=C(CCCCc1ccccc1)Oc1ccc([N+](=O)[O-])cc1`, the log K in assay [2] was -1.68.

Take `COC(=O)[C@@H](C)NC(=O)c1cccs1`: the log(1/Km) in assay [1] was 2.16.

In the case of `CC(C)C(=O)Oc1ccc([N+](=O)[O-])cc1`, the log K in assay [2] was -2.45.

In the case of `O=C(CCCCl)Oc1ccc([N+](=O)[O-])cc1`, in assay [2], the log K is -1.27.

The compound `CCC(=O)NCC(=O)Oc1ccc([N+](=O)[O-])cc1` returned a log(1/Km) in assay [1] of 3.95. Besides, the log K in assay [2] is -0.25.

Compound `C[C@H](NC(=O)OCc1ccccc1)C(=O)Oc1ccc([N+](=O)[O-])cc1` displayed a log(1/Km) in assay [1] of 4.7. The log K in assay [2] came to 0.48.

Take `CCC(=O)Oc1ccc([N+](=O)[O-])cc1`: the log K in assay [2] was -2.1.

On to `CCC[C@@H](NC(C)=O)C(=O)OC`, for which, in assay [1], the log1/Ki was determined as 0.95.

As for `CCC[C@@H](NC(=O)CCl)C(=O)OC`, the log1/Ki in assay [1] was 1.23.

In assay [1], `CC(=O)N[C@H](C(=O)Oc1ccc([N+](=O)[O-])cc1)C(C)C` returned a log(1/Km) of 3.31.

With `CC(=O)N[C@@H](C)C(=O)Oc1ccc([N+](=O)[O-])cc1`, in assay [1], the log(1/Km) was determined as 3.32.

As for `O=COc1ccc([N+](=O)[O-])cc1`, in assay [2], the log K amounted to 0.39.

`CC(C)[C@@H](NC(=O)OCc1ccccc1)C(=O)Oc1ccc([N+](=O)[O-])cc1` showed a log(1/Km) in assay [1] of 5.13. Also, the log K in assay [2] is -2.1.

`CCCC(=O)NCC(=O)Oc1ccc([N+](=O)[O-])cc1`: in assay [1], the log(1/Km) worked out at 3.87. Also, in assay [2], the log K was -0.06.

On to `COC(=O)[C@@H](C)NC(=O)c1ccccn1`, for which the log(1/Km) in assay [1] stood at 1.77.

In assay [1], `CCC[C@@H](NC(=O)c1ccccc1)C(=O)OC` yielded a log1/Ki of 2.75.

With `CCCC[C@H](NC(=O)OCc1ccccc1)C(=O)Oc1ccc([N+](=O)[O-])cc1`, in assay [1], the log(1/Km) came out at 5.24. Moreover, the log K in assay [2] amounted to 1.1.

Turning to `O=C(CCl)Oc1ccc([N+](=O)[O-])cc1`, in assay [2], the log K is 0.47.

Take `CC(=O)Oc1ccc([N+](=O)[O-])cc1`: the log K in assay [2] is -2.

As for `CC(C)(C)CC(=O)Oc1ccc([N+](=O)[O-])cc1`, in assay [2], the log K is -3.82.

Compound `C[C@@H](NC=O)C(=O)Oc1ccc([N+](=O)[O-])cc1` returned a log(1/Km) in assay [1] of 5.21. Moreover, the log K in assay [2] was -1.14.

As for `CCOC(=O)CNC(=O)c1ccccc1`, in assay [1], the log(1/Km) was determined as 2.64.

On to `CC(=O)NCCCC(=O)Oc1ccc([N+](=O)[O-])cc1`, for which, in assay [2], the log K is -2.21.

In turn, `COC(=O)[C@H](NC(C)=O)C(C)C` showed a log1/Ki in assay [1] of 0.71.

Consider `CCCCCCC(=O)Oc1ccc([N+](=O)[O-])cc1`, for which, in assay [2], the log K was -1.21.

In assay [1], `COC(=O)[C@@H](C)NC(=O)c1ccncc1` gave a log(1/Km) of 1.57.

For `O=C(CNC(=O)OCc1ccccc1)Oc1ccc([N+](=O)[O-])cc1`, in assay [1], the log(1/Km) worked out at 5.31. The log K in assay [2] is -0.39.

In the case of `CC(C)(C)C(=O)Oc1ccc([N+](=O)[O-])cc1`, in assay [2], the log K is -3.69.

In assay [1], `CCOC(=O)[C@H](C)NC(C)=O` came in with a log(1/Km) of 0.6.

Regarding `CCC[C@H](NC(=O)OCc1ccccc1)C(=O)Oc1ccc([N+](=O)[O-])cc1`, the log(1/Km) in assay [1] was determined as 5.57. The log K in assay [2] worked out at 0.19.

The compound `CCOC(=O)[C@@H](Cc1ccc(O)cc1)NC(=O)c1cccnc1` registered a log1/Ki in assay [1] of 3.1.

Compound `CC(C)C[C@@H](NC(=O)OCc1ccccc1)C(=O)Oc1ccc([N+](=O)[O-])cc1` displayed a log(1/Km) in assay [1] of 5.62. For the same compound, the log K in assay [2] was -0.96.

On to `CC(C)CC(=O)Oc1ccc([N+](=O)[O-])cc1`, for which the log K in assay [2] was -2.9.

Regarding `CCCCC(=O)Oc1ccc([N+](=O)[O-])cc1`, the log K in assay [2] was -1.77.
